For assay [1], the system named is Male CD-1 mice. Nature of the assay: Psychostimulant (amphetamine)-induced hyperactivity in mice. The following applies: AMPH 2 mg/kg i.p. + clozapine 3 mg/kg i.p. 30 min before; over 60 min; mean ± sem; p<0.01 vs amphetamine alone.
Assay [2] deals with "fast-firing" interneurons in the somatosensory cortex. Nature of the assay: Recordings from fast-firing interneurons, spike probability on trains of depolarising pulses. Type of assay: cell-based, mouse. The following applies: 1 microM, n=6; trains at 100, 200, 300 Hz; effect at 300 Hz, p<0.05. From the text:
Kv3.1 and Kv3.2 channels must activate and deactivate very rapidly in order to allow neurons to fire actions potentials at high frequency (Rudy and McBain, 2001, Trends in Neurosciences 24, 517-526). Slowing of activation is likely to delay the onset of action potential repolarisation; slowing of deactivation could lead to hyperpolarising currents that reduce the excitability of the neuron and delay the time before the neuron can fire a further action potential. Together these slowing effects on channel activation and deactivation are likely to lead to a reduction rather than a facilitation of the neurons ability to fire at high frequencies. Thus compounds that have this slowing effect on the Kv3.1 and/or Kv3.2 channels may slow neuronal firing.
The neurons are induced to fire at high frequencies by trains of high frequency depolarising current pulses at 100, 200, and 300 Hz. The ability of the neuron to fire an action potential on each pulse is determined. […] In the absence of drug (closed circles, n=9), the neurons maintained a spike probability of 1 up to 300 Hz.

For assay [3], the target named is T1, human Kv3.2 channels (hKv3.2) (Homo sapiens, UniProt Q96PR1).
T1 construct: expressed in transfected cells
T1 sequence (Q96PR1 1-638): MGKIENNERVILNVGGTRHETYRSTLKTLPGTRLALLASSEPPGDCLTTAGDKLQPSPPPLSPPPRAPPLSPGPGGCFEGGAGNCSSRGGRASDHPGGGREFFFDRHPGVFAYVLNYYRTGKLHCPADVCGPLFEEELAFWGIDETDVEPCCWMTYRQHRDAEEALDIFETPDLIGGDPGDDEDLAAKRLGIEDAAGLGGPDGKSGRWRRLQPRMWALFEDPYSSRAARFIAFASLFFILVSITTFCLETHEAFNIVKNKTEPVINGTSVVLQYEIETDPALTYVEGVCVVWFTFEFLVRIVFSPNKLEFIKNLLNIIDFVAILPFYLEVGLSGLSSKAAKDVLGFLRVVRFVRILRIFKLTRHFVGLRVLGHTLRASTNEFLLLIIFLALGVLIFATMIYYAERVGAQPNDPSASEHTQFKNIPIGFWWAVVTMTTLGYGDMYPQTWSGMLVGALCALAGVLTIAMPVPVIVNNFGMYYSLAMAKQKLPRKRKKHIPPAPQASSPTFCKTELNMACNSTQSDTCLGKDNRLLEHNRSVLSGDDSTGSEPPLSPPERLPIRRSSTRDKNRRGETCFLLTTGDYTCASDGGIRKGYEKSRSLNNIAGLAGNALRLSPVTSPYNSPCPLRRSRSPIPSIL
Nature of the assay: IonWorks Quattro electrophysiology, hKv3.2 currents, activation time constant (Tauact). The format is cell-based. The following applies: hKv3.2, -15 mV pulse. The procedure: The ability of the compounds of the disclosure to modulate the voltage-gated potassium channel subtypes Kv3.2/3.1 may be determined using the following assay.
To assess compound effects on human Kv3.2 channels (hKv3.2), a stable cell line expressing hKv3.2 was created by transfecting Chinese Hamster Ovary (CHO)-K1 cells with a pCIH5-hKv3.2 vector. Cells were cultured in DMEM/F12 medium supplemented by 10% Foetal Bovine Serum, 1× non-essential amino acids (Invitrogen) and 500 ug/ml of Hygromycin-B (Invitrogen). Cells were grown and maintained at 37° C. in a humidified environment containing 5% CO2 in air.
The day of the experiment, cells were removed from the incubator and the culture medium removed. Cells were washed with 5 ml of Dulbecco's PBS (DPBS) calcium and magnesium free and detached by the addition of 3 ml Versene (Invitrogen, Italy) followed by a brief incubation at 37° C. for 5 minutes. The flask was tapped to dislodge cells and 10 ml of DPBS containing calcium and magnesium was added to prepare a cell suspension. The cell suspension was then placed into a 15 ml centrifuge tube and centrifuged for 2 min at 1200 rpm. After centrifugation, the supernatant was removed and the cell pellet re-suspended in 4 ml of DPBS containing calcium and magnesium using a 5 ml pipette to break up the pellet. Cell suspension volume was then corrected to give a cell concentration for the assay of approximately 3 million cells per ml.
Experiments were conducted at room temperature using IonWorks Quattro™ planar array electrophysiology technology (Molecular Devices Corp.) with PatchPlate™ PPC. Stimulation protocols and data acquisition were carried out using a microcomputer (Dell Pentium 4). Planar electrode hole resistances(Rp) were determined by applying a 10 mV voltage step across each well. These measurements were performed before cell addition. […] Following this, amphotericin-B solution was added to the intracellular face of the electrode to achieve intracellular access. Cells were held at −70 mV. Leak subtraction was conducted in all experiments by applying 50 ms hyperpolarizing (10 mV) prepulses to evoke leak currents followed by a 20 ms period at the holding potential before test pulses. From the holding potential of −70 mV, a first test pulse to −15 mV was applied for 100 ms and following a further 100 ms at −70 mV, a second pulse to 40 mV was applied for 50 ms. Cells were then maintained for a further 100 ms at −100 mV and then a voltage ramp from −100 mV to 40 mV was applied over 200 ms. In all experiments, the test pulses protocol was performed in the absence (pre-read) and presence (post-read) of the test compound. Pre- and post-reads were separated by the compound addition followed by a 3 minute incubation.
The intracellular solution contained the following (in mM): K-gluconate 100, KCl 54, MgCl2 3.2, HEPES 5, adjusted to pH 7.3 with KOH. Amphotericin-B solution was prepared as 50 mg/ml stock solution in DMSO and diluted to a final working concentration of 0.1 mg/ml in intracellular solution.
The final assay dilution was 200 and the final compound concentrations were in the range 50 μM to 50 nM.
The recordings were analysed and filtered using both seal resistance (>20 MΩ) and peak current amplitude (>500 pA at the voltage step of 40 mV) in the absence of compound to eliminate unsuitable cells from further analysis. Kv3 channel-mediated outward currents were measured determined from the mean amplitude of the current over the final 10 ms of the −15 mV voltage pulse minus the mean baseline current at −70 mV over a 10 ms period just prior to the −15 mV step. This Kv3 channel currents following addition of the test compound were then compared with the currents recorded prior to compound addition. […] The normalised data were analysed using ActivityBase or Excel software.

Assay [4] has as its system common marmosets (Callithrix jacchus). Nature of the assay: Pharmaco-electroencephalography (phEEG) in the common marmoset. The format is in vivo. The procedure:
Laboratory bred male (vasectomised) and female common marmosets (Callithrix jacchus) over 2 years of age, weighing 250-500 g were used in this study. The animals were caged in couples, in a housing room maintained at 25±1° C., 60% humidity and a 12 hour light/dark cycle (lights on at 0600, with 30 min simulated dawn and twilight). Animals received a standard diet and drinking water ad libitum. Only one animal of each pair was involved in the test, which was carried out with the animal situated in the home cage.
The effect of compounds of the disclosure was assessed using telemetric recording of cortical EEG (ECoG). A multichannel telemetric transmitter (DSI model TL11M2-F40-EET) is implanted intraperitoneally using standard surgical techniques in anaesthetised marmosets. Recording electrodes were permanently fixed, with dental cement, to the skull directly in contact with the dura mater through two drilled holes in the fronto-parietal region. Following surgery, animals were housed in pairs (one implanted, one unoperated partner) in their home cage with access to food and water ad libitum. […] All in vivo studies were conducted in accordance with the Italian laws and conformed to GlaxoSmithkline ethical standards.
The animals were placed in the nest-boxes in their room cages and EEG traces were recorded using Dataquest ART software for a 5-min period for each time-point and analyzed using Spike2 software (CED, UK). The spectral power in each frequency band was determined for each 2 sec epoch during the pre-treatment period and averaged; similarly spectral power in each band was determined for successive 2 sec epochs of each 5-min period of recording following vehicle or drug treatment. Change in the absolute spectral power, for each of the different bands (delta, theta, alpha and beta) was calculated offline.
Drug treatments were assigned according to a complete crossover design: All treatments were randomly distributed between animals, in separate experimental sessions, each animal received vehicle and each dose of drug, after an appropriate wash-out period.
Six animals were treated orally with Reference Example RE2 at the doses of 0.3, 1 and 3 mg/kg (1 ml/kg) and the EEG traces were recorded at +15, 30, 60, 90, 120 and 180 minutes following treatment. Reference Example RE2 was suspended in 12.5% (w/v) aqueous captisol containing 0.1% (w/v) Tween80 and 0.5% (w/v) HPMC.
Four different frequency bands were considered: delta (1.50-6.00 Hz), theta (6.00-8.00 Hz), alpha (8.00-12.00 Hz) and beta (12.00-30.00 Hz). Values for spectral power in each band at each time point were first log transformed and then analysed with a mixed effect model with time as fixed effect, the baseline level as covariate, and animal as random term. Data are summarised as mean of the percentage changes from baseline and standard error.

In assay [5] the test system is Male CD rats. Nature of the assay: Electroshock seizure model in rats. The following applies: 300 mg/kg p.o., 1 hour before test; positive control. The format is in vivo, rat. As to the method:
Male CD rats (85-130 g) were supplied by Charles River, Italy.
Testing involved determining the threshold for tonic hindlimb extensor seizures using a Hugo Sachs Electronik stimulator which delivers a constant current of 0.3 second duration, 50 Hz, sinewave form, fully adjustable between 1 and 300 mA. Stimuli were delivered via corneal electrodes (Stean T O, Atkins A R, Heidbreder C A, Quinn L P, Trail B K, Upton N. (2005) Br J Pharmacol. 144(5):628-35). Seizure threshold was determined using the ‘up and down’ method of Kimball et al. (1957)(Kimball A W, Burnett W T Jr, Doherty D G. (1957) Radiat Res. 7(1):1-12). The first animal tested in each group was stimulated with a current that might be expected to be close to the threshold for induction of a seizure. If a tonic seizure was not induced, then the next animal in the group received a stimulus 5 mA higher. If a tonic seizure was induced, then the next animal received a stimulus 5 mA lower. This is repeated for all animals within the control (vehicle) group. In the case of groups treated with a test compound steps of 5 to 10 mA were used. At the end of the study, blood samples were taken for analysis of the drug concentrations in this compartment (n=4/group).
All doses were calculated as base. Sodium valproate was suspended in Methocell 1% (w/v) and dosed via the oral (p.o.) route at 5 mL/kg 1 hour before test. Reference Example RE1 was dissolved in DMSO and then suspended in Methocell 1% (w/v) to a final DMSO concentration of 5% (v/v). Reference Example RE1 was then dosed p.o. at 5 mL/kg 2 hours before test.
Induction of seizure is measured as an all-or-nothing effect scored as either present (+) or absent (0) for each animal. […] Drug effects were calculated as the % change in CC50. Significant differences between drug-treated animals and appropriate vehicle treated groups were assessed according to the methods of Litchfield and Wilcoxon (1949).

“Also recorded” adds a separate entry of the source.

For `CN1CCN(C2=Nc3cc(Cl)ccc3Nc3ccccc32)CC1` [Clozapine, reference compound], in assay [1], the “Total Distance Travelled (cm)” value came out at 932 ± 362 cm.

As to `CC[C@H]1NC(=O)N(c2ccc(Oc3cccc4c3C3(CC3)CO4)nc2)C1=O` [Example 15, (5R)-5-ethyl-3-[6-(spiro[1-benzofuran-3,1′-cyclopropan]-4-yloxy)-3-pyridinyl]-2,4-imidazolidinedione], the “ability of neurons to fire (spike probability) on trains of depolarising pulses” value in assay [2] is “reduces the ability of the neurons to fire; also recorded: unable to follow trains at the highest frequency”. The “Tauact mean” value in assay [3] (compound 0.2 μM (concentration giving ~0.3 nA current)) worked out at 50.1 ms.

`CC[C@@]1(C)NC(=O)N(c2ccc(Oc3ccc(C)c(OC)c3)nc2)C1=O` [RE2, (5R)-5-ethyl-5-methyl-3-(6-{[4-methyl-3-(methyloxy)phenyl]oxy}-3-pyridinyl)-2,4-imidazolidinedione]: the “Tauact mean” value in assay [3] (compound 12.5 μM (concentration giving ~0.3 nA current)) came out at 7.3 ms. Besides, the “absolute EEG power in the beta band” value in assay [4] (1 mg/kg oral, at 30 minutes (concomitant), vs vehicle, p<0.05) was “significant reduction”. Moreover, the “absolute EEG power in delta band” value in assay [4] (1 mg/kg oral, at 30 minutes, vs vehicle, p<0.10) is recorded as “marginally significant (p<0.10) increase”. Moreover, the “EEG theta band power” value in assay [4] (3 mg/kg oral, at 60 minutes, vs vehicle, p<0.05) was “statistically significant increase”. Besides, in assay [4] (3 mg/kg oral, between 30 and 120 minutes, vs vehicle, p<0.05), the “absolute EEG power in the delta band” value is “statistically significant increase”. In addition, in assay [4] (any dose (0.3, 1, 3 mg/kg oral)), the “EEG power in the alpha band” value is listed as “No significant effects”.

As to `CCCC(CCC)C(=O)[O-].[Na+]` [sodium valproate, Sodium valproate, reference compound], the “increase in seizure threshold (% change in CC50)” value in assay [5] is given as 258%.

The values are drawn from patent US11197859B2 (AUTIFONY THERAPEUTICS LIMITED, priority 2010, dated 2021).
